The source of these data is patent US12667602B2, “Composition for preventing, treating or alleviating diabetes, comprising LGI3-derived peptide as an active ingredient” (CHUNG-ANG UNIVERSITY INDUSTRY-ACADEMIC COOPERATION …, priority 2019, dated 2026).

This data set can be described thus: Solubility in water. In kind it is physicochemical.

Each structure is given as a SMILES string. Values after ≈ are worked out from the molar mass of the structure shown. Residues, ends and D or L forms follow the SMILES beside them.

As a reminder, the solubility is how much of the substance goes into solution per volume. A high value points to a readily soluble substance. In the case of `CC(C)C[C@H](NC(=O)[C@H](C)NC(=O)[C@H](CCC(N)=O)NC(=O)[C@H](Cc1c[nH]cn1)NC(=O)[C@H](CO)NC(=O)[C@H](Cc1ccc(O)cc1)NC(=O)[C@H](Cc1ccccc1)NC(=O)CNC(=O)[C@H](CC(N)=O)NC(=O)[C@@H](N)CCC(N)=O)C(=O)N[C@@H](Cc1c[nH]cn1)C(=O)N[C@@H](C)C(=O)N[C@@H](Cc1c[nH]c2ccccc12)C(=O)N[C@@H](Cc1c[nH]cn1)C(=O)N[C@@H](CCCNC(=N)N)C(=O)O` [P25] (H-QNGFYSHQALHAWHR-OH; N-terminus and C-terminus assumed), the concentration in solution (solubility) came to 10000 µg/mL (≈ 5400 µM).
The compound `CC(C)C[C@H](NC(=O)[C@H](CCC(=O)O)NC(=O)[C@H](CCC(N)=O)NC(=O)[C@H](Cc1ccccc1)NC(=O)[C@H](CCCNC(=N)N)NC(=O)[C@@H](NC(=O)[C@H](Cc1ccccc1)NC(=O)[C@H](CCCCN)NC(=O)[C@H](CCC(N)=O)NC(=O)[C@H](CCCNC(=N)N)NC(=O)CNC(=O)[C@H](CCC(=O)O)NC(=O)[C@@H](N)CC(=O)O)C(C)C)C(=O)N[C@@H](C)C(=O)N[C@H](C(=O)O)C(C)C` [P34] (H-DEGRQKFVRFQELAV-OH; N-terminus and C-terminus assumed) came in with a solubility of 1000 µg/mL (≈ 549 µM).
